Experimental data published in ChEMBL document CHEMBL5465560, “Selectivity Literature for EUbOPEN Chemogenomic Library” (2024).

Columns and labels:
[1] = target: Mitogen-activated protein kinase kinase kinase kinase 1 (Homo sapiens) (UniProt Q92918); experiment: Selectivity interaction (Kinase panel (KiNativ target engagement assay in Jurkat cells)) EUB0001635a MAP4K1; type: cell-based; conditions: Selectivity number of off-targets 0.0, Selectivity number of targets 233.0, Source Knowledge https://www.sciencedirect.com/science/article/pii/S2451945619300674?via%3Dihub, at 1 µM
Sequence of Mitogen-activated protein kinase kinase kinase kinase 1 (Homo sapiens) (Q92918 whole entry, looked up): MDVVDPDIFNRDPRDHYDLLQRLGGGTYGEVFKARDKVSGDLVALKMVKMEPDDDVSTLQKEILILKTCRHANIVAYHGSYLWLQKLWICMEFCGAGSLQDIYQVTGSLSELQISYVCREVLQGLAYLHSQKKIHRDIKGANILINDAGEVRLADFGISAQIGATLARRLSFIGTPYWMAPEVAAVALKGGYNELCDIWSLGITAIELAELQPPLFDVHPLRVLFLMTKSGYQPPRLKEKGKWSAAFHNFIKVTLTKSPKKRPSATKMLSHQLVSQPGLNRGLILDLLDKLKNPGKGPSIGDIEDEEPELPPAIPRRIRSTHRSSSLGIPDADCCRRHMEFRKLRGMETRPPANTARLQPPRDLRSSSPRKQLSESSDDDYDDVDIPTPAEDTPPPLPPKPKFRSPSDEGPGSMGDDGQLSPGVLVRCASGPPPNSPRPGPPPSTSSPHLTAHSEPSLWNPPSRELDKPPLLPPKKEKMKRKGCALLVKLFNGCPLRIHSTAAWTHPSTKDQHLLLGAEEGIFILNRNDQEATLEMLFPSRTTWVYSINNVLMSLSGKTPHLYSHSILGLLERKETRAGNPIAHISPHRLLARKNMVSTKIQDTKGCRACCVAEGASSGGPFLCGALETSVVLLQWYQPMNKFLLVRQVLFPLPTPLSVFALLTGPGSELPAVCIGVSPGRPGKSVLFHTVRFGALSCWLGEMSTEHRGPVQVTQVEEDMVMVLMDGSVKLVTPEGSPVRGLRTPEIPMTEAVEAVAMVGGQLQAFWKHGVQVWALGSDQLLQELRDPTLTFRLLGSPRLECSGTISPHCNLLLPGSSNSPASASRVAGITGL

[2] = target: Mitogen-activated protein kinase kinase kinase 11 (Homo sapiens) (UniProt Q16584); experiment: Selectivity interaction (Kinase panel (KiNativ target engagement assay in Jurkat cells)) EUB0001635a MAP3K11; type: cell-based; conditions: Selectivity number of off-targets 0.0, Selectivity number of targets 233.0, Source Knowledge https://www.sciencedirect.com/science/article/pii/S2451945619300674?via%3Dihub, at 1 µM
Sequence of Mitogen-activated protein kinase kinase kinase 11 (Homo sapiens) (Q16584 whole entry, looked up): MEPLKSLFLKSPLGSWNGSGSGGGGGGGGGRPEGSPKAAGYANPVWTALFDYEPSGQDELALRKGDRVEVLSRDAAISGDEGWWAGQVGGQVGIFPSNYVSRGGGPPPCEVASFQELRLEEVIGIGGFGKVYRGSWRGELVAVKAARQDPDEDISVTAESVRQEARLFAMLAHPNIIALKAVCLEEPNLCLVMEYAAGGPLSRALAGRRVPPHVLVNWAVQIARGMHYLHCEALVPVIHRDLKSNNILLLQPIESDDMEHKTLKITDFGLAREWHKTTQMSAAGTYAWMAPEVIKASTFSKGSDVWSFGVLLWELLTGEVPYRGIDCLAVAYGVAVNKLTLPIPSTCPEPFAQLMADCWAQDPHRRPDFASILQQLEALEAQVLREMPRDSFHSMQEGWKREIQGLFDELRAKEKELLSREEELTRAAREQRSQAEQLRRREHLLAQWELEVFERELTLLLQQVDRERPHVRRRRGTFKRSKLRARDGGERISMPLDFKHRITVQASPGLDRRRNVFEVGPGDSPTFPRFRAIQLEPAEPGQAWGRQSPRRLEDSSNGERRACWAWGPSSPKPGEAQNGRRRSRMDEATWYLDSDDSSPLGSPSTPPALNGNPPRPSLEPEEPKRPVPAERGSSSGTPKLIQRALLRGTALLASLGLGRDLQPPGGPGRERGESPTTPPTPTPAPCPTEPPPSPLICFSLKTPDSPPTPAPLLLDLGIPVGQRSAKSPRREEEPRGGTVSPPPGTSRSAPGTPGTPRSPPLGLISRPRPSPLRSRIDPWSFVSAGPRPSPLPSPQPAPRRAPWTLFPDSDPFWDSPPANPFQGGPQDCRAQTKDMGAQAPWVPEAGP

[3] = target: T1, Myosin-IIIb (Homo sapiens) (UniProt Q8WXR4); experiment: Selectivity interaction (KinomeScan (DiscoverX)) EUB0000229b MYO3B; conditions: at 10 µM
T1 sequence (whole entry): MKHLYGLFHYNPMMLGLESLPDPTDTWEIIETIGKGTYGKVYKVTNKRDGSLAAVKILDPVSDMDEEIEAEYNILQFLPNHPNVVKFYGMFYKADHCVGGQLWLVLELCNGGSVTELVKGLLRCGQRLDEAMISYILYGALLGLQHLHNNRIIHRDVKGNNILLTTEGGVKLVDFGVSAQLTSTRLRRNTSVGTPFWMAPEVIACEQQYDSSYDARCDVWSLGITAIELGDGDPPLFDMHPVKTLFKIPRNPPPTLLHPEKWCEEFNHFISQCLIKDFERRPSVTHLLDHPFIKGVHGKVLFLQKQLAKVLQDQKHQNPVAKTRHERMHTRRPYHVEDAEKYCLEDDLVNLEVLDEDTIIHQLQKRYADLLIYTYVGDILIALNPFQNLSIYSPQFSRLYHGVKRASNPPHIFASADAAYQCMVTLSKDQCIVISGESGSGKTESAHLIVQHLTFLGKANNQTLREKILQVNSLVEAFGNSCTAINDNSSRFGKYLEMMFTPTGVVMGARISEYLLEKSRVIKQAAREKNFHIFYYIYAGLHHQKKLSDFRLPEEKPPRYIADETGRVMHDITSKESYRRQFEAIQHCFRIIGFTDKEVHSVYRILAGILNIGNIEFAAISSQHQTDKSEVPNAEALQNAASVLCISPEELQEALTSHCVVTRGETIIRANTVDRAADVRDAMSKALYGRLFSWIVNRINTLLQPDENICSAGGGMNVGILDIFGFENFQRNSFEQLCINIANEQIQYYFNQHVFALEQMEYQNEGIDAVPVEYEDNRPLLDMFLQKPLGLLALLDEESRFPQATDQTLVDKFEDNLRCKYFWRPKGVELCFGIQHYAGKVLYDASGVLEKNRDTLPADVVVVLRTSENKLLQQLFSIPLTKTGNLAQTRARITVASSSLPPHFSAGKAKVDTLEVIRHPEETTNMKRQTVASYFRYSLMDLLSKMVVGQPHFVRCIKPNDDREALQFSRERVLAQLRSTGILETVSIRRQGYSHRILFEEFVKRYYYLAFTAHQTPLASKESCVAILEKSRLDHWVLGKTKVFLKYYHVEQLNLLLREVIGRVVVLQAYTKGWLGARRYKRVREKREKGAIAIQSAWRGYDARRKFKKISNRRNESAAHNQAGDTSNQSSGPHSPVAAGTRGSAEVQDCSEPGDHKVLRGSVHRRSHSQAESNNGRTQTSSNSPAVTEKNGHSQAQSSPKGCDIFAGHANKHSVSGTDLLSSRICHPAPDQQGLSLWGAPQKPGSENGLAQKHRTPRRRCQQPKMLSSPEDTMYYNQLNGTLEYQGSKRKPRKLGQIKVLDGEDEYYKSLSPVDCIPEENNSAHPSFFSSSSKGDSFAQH

[4] = target: Tyrosine-protein kinase Srms (Homo sapiens) (UniProt Q9H3Y6); experiment: Selectivity interaction (KinomeScan (DiscoverX)) EUB0001079a SRMS; conditions: at 1 µM
Sequence of Tyrosine-protein kinase Srms (Homo sapiens) (Q9H3Y6 whole entry): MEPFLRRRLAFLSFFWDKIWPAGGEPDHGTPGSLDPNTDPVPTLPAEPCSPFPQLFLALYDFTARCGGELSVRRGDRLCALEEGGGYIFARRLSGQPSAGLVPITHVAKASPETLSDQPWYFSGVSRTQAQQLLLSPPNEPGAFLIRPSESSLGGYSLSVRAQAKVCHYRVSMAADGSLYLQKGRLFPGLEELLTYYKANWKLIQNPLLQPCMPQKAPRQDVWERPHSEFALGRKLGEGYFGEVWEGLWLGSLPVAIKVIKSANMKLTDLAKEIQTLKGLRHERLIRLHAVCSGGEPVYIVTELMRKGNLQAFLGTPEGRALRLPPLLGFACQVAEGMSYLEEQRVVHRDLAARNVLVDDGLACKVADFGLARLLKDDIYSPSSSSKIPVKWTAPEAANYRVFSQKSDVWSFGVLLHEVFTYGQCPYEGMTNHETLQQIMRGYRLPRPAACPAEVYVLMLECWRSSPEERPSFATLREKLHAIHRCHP

[5] = target: Serine/threonine-protein kinase PLK1 (Homo sapiens, UniProt P53350); conditions: at 10 µM
Sequence of Serine/threonine-protein kinase PLK1 (P53350 whole entry): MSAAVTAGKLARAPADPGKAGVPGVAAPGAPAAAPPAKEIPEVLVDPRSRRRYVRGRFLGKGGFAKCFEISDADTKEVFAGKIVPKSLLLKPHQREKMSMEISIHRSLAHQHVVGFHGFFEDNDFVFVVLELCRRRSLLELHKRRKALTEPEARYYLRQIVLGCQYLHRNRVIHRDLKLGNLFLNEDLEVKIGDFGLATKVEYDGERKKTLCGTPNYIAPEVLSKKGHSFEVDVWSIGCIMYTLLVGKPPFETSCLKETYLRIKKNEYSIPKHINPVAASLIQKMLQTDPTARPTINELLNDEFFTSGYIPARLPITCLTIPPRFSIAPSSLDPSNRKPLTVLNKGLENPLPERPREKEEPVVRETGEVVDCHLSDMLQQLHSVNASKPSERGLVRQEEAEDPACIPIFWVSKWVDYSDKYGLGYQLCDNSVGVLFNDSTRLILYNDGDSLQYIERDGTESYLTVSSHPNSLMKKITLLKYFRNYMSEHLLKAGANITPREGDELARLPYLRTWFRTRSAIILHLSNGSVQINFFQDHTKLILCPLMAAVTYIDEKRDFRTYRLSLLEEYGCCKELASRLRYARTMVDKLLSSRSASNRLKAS

[6] = tested on: Tyrosine-protein kinase ABL1 (Homo sapiens), P00519 [T315I]; experiment: (§1) Selectivity interaction (Millipore kinase profiler) EUB0000124b ABL1; conditions: at 10 µM
[7] = target: Tyrosine-protein kinase ABL1 (Homo sapiens, UniProt P00519); experiment: as §1; conditions: at 10 µM
[8] = target: Delta-type opioid receptor (Homo sapiens, UniProt P41143); experiment: Selectivity interaction (Opiate Delta receptor assay, human recombinant ) EUB0000877a OPRD1
Sequence of Delta-type opioid receptor (P41143 whole entry): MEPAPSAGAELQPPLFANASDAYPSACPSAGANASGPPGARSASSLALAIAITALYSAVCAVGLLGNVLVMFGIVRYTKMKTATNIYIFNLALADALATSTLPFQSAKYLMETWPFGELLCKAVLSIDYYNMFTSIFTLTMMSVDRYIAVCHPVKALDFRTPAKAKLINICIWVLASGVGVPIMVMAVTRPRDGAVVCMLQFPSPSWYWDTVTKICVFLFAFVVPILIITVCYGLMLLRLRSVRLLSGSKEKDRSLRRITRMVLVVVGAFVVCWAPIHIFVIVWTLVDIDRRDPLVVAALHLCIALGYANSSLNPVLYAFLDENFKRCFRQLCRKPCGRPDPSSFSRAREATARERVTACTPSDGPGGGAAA

[9] = target: Hepatocyte growth factor-like protein (Homo sapiens) (UniProt P26927); experiment: Selectivity interaction (Kinase panel (Eurofins)) EUB0001564a MST1; conditions: at 1 µM
[10] = target: DNA-dependent protein kinase catalytic subunit (Homo sapiens) (UniProt P78527); experiment: Selectivity interaction (ActivX KiNativ screen (ex vivo kinase selectivity in human PBMCs)) EUB0001619a PRKDC; type: cell-based; conditions: PBMC, at 1 µM
[11] = target: T2, Eukaryotic elongation factor 2 kinase (Homo sapiens) (UniProt O00418); experiment: Selectivity interaction (Kinase panel (Invitrogen)) EUB0000639a EEF2K; conditions: at 200 nM
T2 sequence (whole entry): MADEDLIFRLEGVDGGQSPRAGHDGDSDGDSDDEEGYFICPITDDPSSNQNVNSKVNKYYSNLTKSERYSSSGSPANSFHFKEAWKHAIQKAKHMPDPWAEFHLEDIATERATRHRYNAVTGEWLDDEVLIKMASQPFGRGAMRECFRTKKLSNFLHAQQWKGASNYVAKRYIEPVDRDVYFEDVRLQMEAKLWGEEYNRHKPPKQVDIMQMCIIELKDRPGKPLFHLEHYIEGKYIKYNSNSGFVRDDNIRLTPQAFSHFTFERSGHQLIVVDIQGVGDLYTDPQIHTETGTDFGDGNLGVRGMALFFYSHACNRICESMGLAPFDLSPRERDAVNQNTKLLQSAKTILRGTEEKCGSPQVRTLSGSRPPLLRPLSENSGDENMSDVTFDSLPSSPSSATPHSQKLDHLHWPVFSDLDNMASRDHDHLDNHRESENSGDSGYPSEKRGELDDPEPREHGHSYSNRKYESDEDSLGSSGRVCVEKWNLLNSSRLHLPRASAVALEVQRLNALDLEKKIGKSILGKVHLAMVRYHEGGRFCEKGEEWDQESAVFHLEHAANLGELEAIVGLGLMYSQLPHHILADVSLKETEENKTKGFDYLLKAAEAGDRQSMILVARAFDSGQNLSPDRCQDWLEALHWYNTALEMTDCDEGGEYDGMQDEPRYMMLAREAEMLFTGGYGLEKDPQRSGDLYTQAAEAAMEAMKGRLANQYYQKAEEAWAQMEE

In the case of `C=CC(=O)Nc1ccc(C(=O)Nc2[nH]nc3c2CN(C(=O)N[C@H](CN(C)C)c2ccccc2)C3(C)C)cc1`, the % of engagement [1] is reported as 4.1% and the % of engagement [2] is reported as -1.9%.

`COc1cc(N(C)c2ccnc3ccc(C(F)(F)F)cc23)cc(OC)c1OC` showed a % binding [3] of 100%.

In the case of `Nc1cnc(N2CCc3cc(S(=O)(=O)Nc4c(F)cc(Cl)cc4F)cc(N4CCCC4=O)c32)nc1` [TP-020n], the % of control [4] is reported as 88%.

For `Cc1cc([C@@H](C)Nc2ccccc2C(=O)O)c2nc(N3CCOCC3)cc(=O)n2c1` [AZD-6482], the % of control [5] was 100%.

With `CC(=O)Nc1cccc(-n2c(=O)n(C3CC3)c(=O)c3c(Nc4ccc(I)cc4F)n(C)c(=O)c(C)c32)c1` the % of control [6] was 112% and the % of control [7] was 95%.

For `CCC(=O)N1CC[C@H](Nc2ncnc3c2CN(c2cnc(OC)c(C(F)(F)F)c2)CC3)C1` [LENIOLISIB], the IC50 [8] was greater than 30 µM.

`CC[C@@H](Nc1c(C#N)c(-c2ccc(-c3cccc(C)c3F)cc2)nc2cnccc12)C(=O)O` [BAY-091] was tested, and the % of inhibition [9] was 20.6%.

`N#Cc1cccc(-c2c[nH]c3ncnc(N4CCOCC4)c23)c1` was tested, and the % of inhibition [10] was -6%.

`CC[C@@H]1[C@H](F)C(=O)N[C@@H]1COc1nccc2cc(C(N)=O)c(OC)cc12` [ZIMLOVISERTIB] showed a % of inhibition [11] of 21.1%.
